PMC8929329, “The pharmaceutical excipient PEG400 affect the absorption of baicalein in Caco‐2 monolayer model by interacting with UDP‐glucuronosyltransferases and efflux transport proteins” (Pharmacology Research & Perspectives, 2022)

Experiments:
Stability study in HBSS = type: physicochemical; settings: 37°C, 2 h
Description: The test was carried out by measuring the content of B, BG, and B6G before and after keeping in the HBSS solution at 37°C for 2 h. The time interval was selected according to the permeation experiment. The differences between the contents of the three samples before or after the incubation were calculated and expressed as the percentage of B, BG, and B6G remaining.

Caco-2 cell monolayer = assay: Permeation experiments on Caco-2 cell monolayer (two-way transport); type: in vitro ADME, human; settings: for P appAL-BL / P appBL-AL: 5 μM in supply chamber; for permeation within 2 h compared with the control group: AL-BL experiment, baicalein 10 μM loaded with 0.5% (v/v) PEG400; for penetration within 2 h compared with the control group: BL-AP experiment, baicalein 10 μM loaded with 0.5% (v/v) PEG
Description: (§1) Cell culture was performed as previously described.[15] For transport experiments, Caco-2 cells from passage number 20-30 were seeded at a density of 2 × 10^5 cells per well on transwell plate (a solid insert for cell culture contains porous permeable polycarbonate membrane) with polycarbonate membranes using a blood-counting chamber (QIU JING®). A 0.5 ml of culture medium with cells was added to the apical side (AP) and 1.5 ml of blank culture medium was added to the basolateral side (BL). During the incubation period, the medium on the AP and BL sides were changed every 2 days in the first week, and every day after a week until the 21st day. The permeation of samples was assessed in both directions at different concentrations. This experiment assessed the influence of different concentrations (%, v/v) of PEG400 on the permeation process of B, BG, and […]. […] Caco-2 cell monolayers with qualified monolayer membrane integrity were used for drug permeability experiments. Aspirated and discarded the original culture medium in the transwell plate, added pre-warmed (37°C) HBSS to wash 3 times, put it in the incubator for the last time and incubated for 30 min. […] For the AP-BL permeability (absorptive transport study), add 0.5 ml of samples (dissolved in HBSS) to the apical side (AP) as a supply chamber, and add 1.5 ml of pre-warmed HBSS to the basolateral side (BL) as a receiving chamber. Alternatively, in the permeation direction of BL-AP compartment (secretive transport study), add 1.5 ml of samples (dissolved in HBSS) to the BL side as a supply chamber, and add 0.5 ml of pre-warmed HBSS to the AP side as a receiving chamber. After the above steps, put the transwell plate on the thermostatic oscillator (Changzhou Wanhe Instrument Manufacturing Co., Ltd.) at 60 r/min. And sample 100 μl from the receiving pool or 10 μl from the supply chamber at 30, 60, 90, and 120 min depending on the experiment, and make up the same volume of blank pre-warmed HBSS. The sample taken from the transwell plate was precipitated with the 100 μl of methanol to precipitate the protein. After centrifugation at 16 000g for 15 min at 4°C, 70 μl of the supernatant was taken. And the content was determined by UPLC-MS/MS method to calculate the apparent permeability coefficient (P app) and efflux ratio (ER). The P app and ER of Caco-2 monolayers was measured and calculated as Equations ((2), (3), (4)): (2) Papp=dQ/dt/AC0 Where ΔQ/Δt (ng/ml·s) is the rate of permeability (ng/ml·s for B, BG, […]); A is for the membrane area (1.12 cm^2); C 0 (ng/ml/for B, BG, […]) is the initial concentration of the sample in the supply chamber. The apparent permeability might need to be corrected because of the effect of the marked amount of baicalein glucuronide.[17] Thus, the corrected permeability was calculated from the total rate of drug transport and the glucuronide excretion rate of bidirectional side divided by the membrane area (A) of the monolayer and the initial concentration of baicalein at the loading side (C 0): (3) Pcorrected=dQ/dt+Aex+Bex/AC0 (4) […] - BL Where P appBL-AP is the apparent permeability coefficient when the sample is added on the basolateral side; […]-BL is the apparent permeability coefficient when the sample is added on the apical side.

P-gp = assay: as above; type: in vitro ADME, human; settings: human, Caco-2, with verapamil 10 µM, 5 + 10 µM Ver (P-GP inhibitor); for efflux ratio at 120 min, 5 µM: read-out: ER (P BL-AP)/(P AP-BL)
Description: as §1

BCRP = assay: as above; type: in vitro ADME, human; settings: human, Caco-2, with KO143 10 µM (BCRP inhibitor), 5 + 10 µM KO143 (BCRP inhibitor); for efflux ratio at 120 min, 5 µM: read-out: ER (P BL-AP)/(P AP-BL); for Papp A→B at 120 min, 5 µM: read-out: P app Absorptive (AP-BL); for Papp B→A at 120 min, 5 µM: read-out: P app Secretory (BL-AP)
Description: as §1

MRP2 = assay: as above; type: in vitro ADME, human; settings: human, Caco-2, with MK-571 10 µM, 5 + 10 µM MK571 (MRP inhibitor); for efflux ratio at 120 min, 5 µM: read-out: ER (P BL-AP)/(P AP-BL); for Papp A→B at 120 min, 5 µM: read-out: P app Absorptive (AP-BL); for Papp B→A at 120 min, 5 µM: read-out: P app Secretory (BL-AP)
Description: as §1

[1] = as above; type: in vitro ADME, human; settings: human, Caco-2, 5 µM; for efflux ratio at 120 min, 5 µM: read-out: ER (P BL-AP)/(P AP-BL); for Papp A→B at 120 min, 5 µM: read-out: P app Absorptive (AP-BL); for Papp B→A at 120 min, 5 µM: read-out: P app Secretory (BL-AP)
Description: as §1

[2] = parameters: method as in doi:10.2174/1573412916666200206141439; settings: effect of PEG400; cited from earlier work

## O=C(O)[C@H]1O[C@@H](Oc2c(O)cc3oc(-c4ccccc4)cc(=O)c3c2O)[C@H](O)[C@@H](O)[C@@H]1O [B6G, baicalein‐6‐O‐β‐D‐glucuronide]
Stability study in HBSS; 150 ng ml^−1
  Stability (percentage remaining): 98.71 ± 6.52%
Stability study in HBSS; 300 ng ml^−1
  Stability (percentage remaining): 99.36 ± 6.23%
Stability study in HBSS; 600 ng ml^−1
  Stability (percentage remaining): 94.32 ± 5.33%
Caco-2 cell monolayer; 5 µM
  ER (P BL-AP)/(P AP-BL): 1.01
Caco-2 cell monolayer; 5 µM + 0.25%PEG400
  ER (P BL-AP)/(P AP-BL): 0.93
  P app Absorptive (AP-BL): 6.74 ± 0.22 1 × 10^−6 cm·s^−1
  P app Secretory (BL-AP): 6.3 ± 0.98 1 × 10^−6 cm·s^−1
Caco-2 cell monolayer; 5 µM + 0.5%PEG400
  ER (P BL-AP)/(P AP-BL): 0.71
  P app Absorptive (AP-BL): 6.15 ± 0.17 ^* 1 × 10^−6 cm·s^−1
  P app Secretory (BL-AP): 4.39 ± 0.31 ^* 1 × 10^−6 cm·s^−1
Caco-2 cell monolayer; 5 µM + 1%PEG400
  ER (P BL-AP)/(P AP-BL): 0.56
  P app Absorptive (AP-BL): 7.53 ± 0.48 ^* 1 × 10^−6 cm·s^−1
  P app Secretory (BL-AP): 4.24 ± 0.25 ^** 1 × 10^−6 cm·s^−1
Caco-2 cell monolayer
  P appAL-BL: 6.38 ± 0.26 ×10⁻⁶ cm/s
  P appBL-AL: 6.35 ± 0.55 ×10⁻⁶ cm/s
  permeation within 2 h compared with the control group: significantly increased
  penetration within 2 h compared with the control group: did not show a significant difference
Caco-2 cell monolayer; 5 + 10 µM Ver (P-GP inhibitor)
  P app Absorptive (AP-BL): 6.37 ± 0.15 1 × 10^−6 cm·s^−1
  P app Secretory (BL-AP): 6.26 ± 0.2 1 × 10^−6 cm·s^−1
P-gp
  efflux ratio at 120 min, 5 µM: 0.98
BCRP
  efflux ratio at 120 min, 5 µM: 0.71
  Papp A→B at 120 min, 5 µM: 6.68 ± 0.06 ×10⁻⁶ cm/s
  Papp B→A at 120 min, 5 µM: 4.77 ± 0.09 ×10⁻⁶ cm/s
MRP2
  efflux ratio at 120 min, 5 µM: 0.65
  Papp A→B at 120 min, 5 µM: 6.91 ± 0.23 ×10⁻⁶ cm/s
  Papp B→A at 120 min, 5 µM: 4.56 ± 0.21 ×10⁻⁶ cm/s
[1]
  efflux ratio at 120 min, 5 µM: 1.1
  Papp A→B at 120 min, 5 µM: 6.38 ± 0.26 ×10⁻⁶ cm/s
  Papp B→A at 120 min, 5 µM: 6.35 ± 0.55 ×10⁻⁶ cm/s
[2]
  AUC0-t in plasma: significantly increased
  C max in plasma: significantly increased

## O=C(O)[C@H]1O[C@@H](Oc2cc3oc(-c4ccccc4)cc(=O)c3c(O)c2O)[C@H](O)[C@@H](O)[C@@H]1O [BG, baicalein‐7‐O‐β‐D‐glucuronide]
Stability study in HBSS; 150 ng ml^−1
  Stability (percentage remaining): 93.35 ± 8.25%
Stability study in HBSS; 300 ng ml^−1
  Stability (percentage remaining): 99.20 ± 2.56%
Stability study in HBSS; 600 ng ml^−1
  Stability (percentage remaining): 100.61 ± 4.92%
Caco-2 cell monolayer; 5 µM + 0.25%PEG400
  ER (P BL-AP)/(P AP-BL): 1.03
  P app Absorptive (AP-BL): 9.91 ± 0.21 ^** 1 × 10^−6 cm·s^−1
  P app Secretory (BL-AP): 10.24 ± 0.95 1 × 10^−6 cm·s^−1
Caco-2 cell monolayer; 5 µM + 0.5%PEG400
  ER (P BL-AP)/(P AP-BL): 0.65
  P app Absorptive (AP-BL): 15.98 ± 0.11 ^** 1 × 10^−6 cm·s^−1
  P app Secretory (BL-AP): 10.36 ± 0.05 1 × 10^−6 cm·s^−1
Caco-2 cell monolayer; 5 µM + 1%PEG400
  ER (P BL-AP)/(P AP-BL): 0.57
  P app Absorptive (AP-BL): 14.37 ± 0.99 ^** 1 × 10^−6 cm·s^−1
  P app Secretory (BL-AP): 8.24 ± 0.07 ^** 1 × 10^−6 cm·s^−1
Caco-2 cell monolayer
  P appAL-BL: 6.52 ± 0.28 ×10⁻⁶ cm/s
  P appBL-AL: 10.23 ± 0.37 ×10⁻⁶ cm/s
  permeation within 2 h compared with the control group: significantly increased
  penetration within 2 h compared with the control group: did not show a significant difference
P-gp
  efflux ratio at 120 min, 5 µM: 1.65
P-gp; read-out: P app Absorptive (AP-BL)
  Papp A→B at 120 min, 5 µM: 6.37 ± 0.53 ×10⁻⁶ cm/s
P-gp; read-out: P app Secretory (BL-AP)
  Papp B→A at 120 min, 5 µM: 10.5 ± 0.14 ×10⁻⁶ cm/s
BCRP
  efflux ratio at 120 min, 5 µM: 0.62
  Papp A→B at 120 min, 5 µM: 10.9 ± 0.4 ×10⁻⁶ cm/s
  Papp B→A at 120 min, 5 µM: 7.31 ± 0.9 ×10⁻⁶ cm/s
MRP2
  efflux ratio at 120 min, 5 µM: 0.86
  Papp A→B at 120 min, 5 µM: 13.2 ± 1.22 ×10⁻⁶ cm/s
  Papp B→A at 120 min, 5 µM: 11.4 ± 0.56 ×10⁻⁶ cm/s
[1]
  efflux ratio at 120 min, 5 µM: 1.57
  Papp A→B at 120 min, 5 µM: 6.52 ± 0.28 ×10⁻⁶ cm/s
  Papp B→A at 120 min, 5 µM: 10.2 ± 0.37 ×10⁻⁶ cm/s
[2]
  AUC0-t in plasma: significantly increased
  C max in plasma: significantly increased
